In ChEMBL document CHEMBL5584247, “Stereochemical properties of quazepam and its affinity for the GABAA receptor” (Bioorg Med Chem Lett, 2024):
“And” between values parts separate entries of the source, which are not always exact repeats. Identical values can stand only once.

How the values were obtained:
[1] = target: T1, GABA-A receptor; anion channel (Homo sapiens) (UniProt P14867+P47870+P18507+P28472+P48169+Q99928+Q9UN88+P34903+O00591+O14764+Q8N1C3+P18505+P78334+P47869+P31644+Q16445); assay: Inhibition of GABAA receptor (unknown origin) at 50 uM relative to control; format: protein-complex assay
[2] = target: T1, GABA-A receptor; anion channel (Homo sapiens); assay: Inhibition of GABAA receptor (unknown origin) at 10 uM relative to control; format: protein-complex assay

For `Cc1cc(Cl)cc2c1N(CC(F)(F)F)C(=S)CN=C2c1ccccc1F`, the inhibition [1] was 35% and 31%, the inhibition ([1]; INHIBITOR) was 53% and the inhibition [2] was 24% and 17% and 26%.
